Results published in patent US20180298344A1, “Realistic Humanized Model of Disease Matrix Environment for Evaluation of Therapeutic Reversal or Cell Fate” (Yale University, priority 2017, published 2018).

System: human microvascular pericytes (PC) on decellularized healthy lungs
Assay: PC on decellularized control human lung scaffolds, TGF-β1 activation with or without nintedanib: histology, α-SMA IHC, tensile testing
Type: cell-based
Protocol: Lung sections were decellularized as previously described (Sun et al., Am J Physiol Lung Cell Mol Physiol, 2014, 306:L463-475; Petersen et al., Science, 2010, 329:538-541). Briefly, the lung pieces were snap frozen, sliced to 2 mm thickness, and rinsed with PBS containing sodium nitroprusside (SNP). The slices were decellularized with 8 mM CHAPS (Sigma-Aldrich, St Louis, Mo., USA), 1M NaCl, and 25 mM EDTA at 37° C. overnight. The slices were treated with 90 U/mL benzonase nuclease (Sigma) for 1 hour and stored in PBS containing 10% penicillin/streptomycin and 2% Gentamicin at 4° C. until the time of culture. For solubilization, the tissue slices were rinsed with PBS, frozen, and lyophilized. The lyophilized pieces were ground to a fine powder using a tissue grinder and digested with 1 mg/mL pepsin (Sigma) in 0.1 M HCl for 72 hours (DeQuach et al., PLoS One, 2010, 5:e13039).
Samples were fixed in 4% paraformaldehyde for 1 hour, dehydrated, embedded in paraffin, and sectioned into 5μm thick slices. Sections were stained with Masson's Trichrome, picrosirius red, and α-smooth muscle actin (SMA) by the Yale Histology Core Facility.
Decellularized lung samples from control and IPF subjects, as well as polyacrylamide hydrogels of varying crosslinking density, were analyzed using an Instron 5848 with a 10N load cell. Elongation was assessed by cross-head displacement. Strips of 10 mm (length)×1 (width) mm, measured with a digital caliper were affixed to grips and pulled until failure at a strain rate of 1%/sec. For lung samples, parenchymal regions were analyzed, and the pleura was avoided. Hydration of samples with PBS was maintained before and during the mechanical conditioning. Using sample dimensions, engineering stress and strain were calculated using the following equations:
σ=stress, F=Force, A0=initial area, ε=strain, lf=final length, l0=initial length. The Young's Modulus for the tissue was determined by dividing the engineering stress σ, by the engineering strain ε at 20% strain, within the normal range of lung inflation. Mechanical properties of the polyacrylamide hydrogels were also analyzed using a modified model of the Hertz equation using a custom made apparatus (FIG. 3) (Lauridsen et al., Technology, 2014, 2:133).
For short term (7 day) differentiation studies, PC (passage 3-7) were seeded on healthy or IPF lung tissue slices, polyacrylamide hydrogels, or 25 mm glass coverslips (VWR) at 100×10^3 cells per sample and activated with control media (non-activated), or 1 ng/mL TGF-β1 (PeproTech, Rocky Hill, N.J., USA) for 7 days (18, 19). For bleomycin activation, the cells were activated with 1 μg/mL bleomycin sulfate (Cayman Chemical, Ann Arbor, Mich.) for 1 day and the media was replaced with non-activated media for the remaining 6 days (Sava et al., Microcirculation, 2015, 22:54-67; Sterling et al., J Bio Chem, 1983, 258:14438-14444). TGF-β1 and bleomycin concentrations were based on reports consistent with activation of fibroblasts (Sava et al., Microcirculation, 2015, 22:54-67; Maroni and Davis, Bio Reprod, 2012, 87:127). Treatment with CCG-1423 (Sigma) was performed at day 0 for the full 7 days, and labeled as early treatment, or at day 7 and performed for 7 days, and labeled as late treatment. […]

Compound | matrix density and collagen I content (nintedanib, TGF-β1-activated PC on decellularized healthy lung) | reduction in the number of PC expressing α-SMA (nintedanib, TGF-β1-activated PC on decellularized healthy lung, IHC, P<0.0001) [%] | elastic modulus of the scaffold (nintedanib, P=0.44 compared with control lung, P=0.001 compared with TGF-β1 without nintedanib) | ECM density and collagen I crosslinking (28 days of TGF-β1, Masson's trichrome and Picosirius red staining) | increase in the elastic modulus of the scaffold (28 days of TGF-β1, PC on decellularized healthy lung, P=0.001) [fold]
COC(=O)c1ccc2c(c1)NC(=O)/C2=C(\Nc1ccc(N(C)C(=O)CN2CCN(C)CC2)cc1)c1ccccc1 [nintedanib] | reduction | 90.1 | reversion of the elastic modulus to baseline levels |  | 
TGF-β1: transforming growth factor (TGF)-β1, fibrotic activator, used at 1 ng/mL |  |  |  | increased | 8.6
